The record followed here is PubChem BioAssay AID248 (DTP/NCI, 2004).

The subject of this assay is L1210 leukemia ip in BDF1 mice, survival T/C. Briefly: NCI In Vivo Anticancer Drug Screen. Data for tumor model L1210 Leukemia (intraperitoneal) in B6D2F1 (BDF1) mice. The settings on record: endpoint: mean survival time, higher = longer survival. The method in brief:
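Read-out is survival time, reported as the treated-group measurement over the vehicle-control measurement.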

[1] abbreviates: dose: 25.0 mg/kg/injection, schedule: Q01DX009 (ip), vehicle: saline.
Where [2] appears, read: dose: 25.0 mg/kg/injection, schedule: Q04DX003 (ip), vehicle: Klucel (hydroxypropylcellulose) (HPC).
Where [3] appears, read: dose: 50.0 mg/kg/injection, schedule: Q01DX009 (ip), vehicle: saline.
[4] abbreviates: dose: 50.0 mg/kg/injection, schedule: Q04DX003 (ip), vehicle: Klucel (hydroxypropylcellulose) (HPC).
The mark [5] stands for this setting: dose: 100.0 mg/kg/injection, schedule: Q01DX009 (ip), vehicle: saline.
[6] abbreviates: dose: 200.0 mg/kg/injection, schedule: Q01DX009 (ip), vehicle: saline.
The mark [7] stands for this setting: dose: 400.0 mg/kg/injection, schedule: Q01DX009 (ip), vehicle: saline.
Where [8] appears, read: dose: 100.0 mg/kg/injection, schedule: Q04DX003 (ip), vehicle: saline.
Setting [9] is: dose: 100.0 mg/kg/injection, schedule: Q01DX001 (ip), vehicle: saline.
Where [10] appears, read: dose: 200.0 mg/kg/injection, schedule: Q01DX001 (ip), vehicle: saline.
[11] abbreviates: dose: 400.0 mg/kg/injection, schedule: Q01DX001 (ip), vehicle: saline.
Setting [12] is: dose: 100.0 mg/kg/injection, schedule: Q04DX002 (ip), vehicle: Klucel (hydroxypropylcellulose) (HPC).
Setting [13] is: dose: 200.0 mg/kg/injection, schedule: Q04DX002 (ip), vehicle: Klucel (hydroxypropylcellulose) (HPC).
The mark [14] stands for this setting: dose: 50.0 mg/kg/injection, schedule: Q01DX009 (ip), vehicle: saline with Tween-80.
The mark [15] stands for this setting: dose: 100.0 mg/kg/injection, schedule: Q01DX009 (ip), vehicle: saline with Tween-80.
Setting [16] is: dose: 200.0 mg/kg/injection, schedule: Q01DX009 (ip), vehicle: saline with Tween-80.
Where [17] appears, read: dose: 100.0 mg/kg/injection, schedule: Q01DX009 (ip), vehicle: Klucel (hydroxypropylcellulose) (HPC).
The mark [18] stands for this setting: dose: 200.0 mg/kg/injection, schedule: Q01DX009 (ip), vehicle: Klucel (hydroxypropylcellulose) (HPC).
Setting [19] is: dose: 400.0 mg/kg/injection, schedule: Q01DX009 (ip), vehicle: Klucel (hydroxypropylcellulose) (HPC).
Where [20] appears, read: dose: 100.0 mg/kg/injection, schedule: Q01DX001 (ip), vehicle: other.
Where [21] appears, read: dose: 200.0 mg/kg/injection, schedule: Q01DX001 (ip), vehicle: other.
Where [22] appears, read: dose: 400.0 mg/kg/injection, schedule: Q01DX001 (ip), vehicle: other.

Several values for one entry are separate records, joined by “and”; a condition that tells them apart may be missing. Equal values may be shown once. Toxic doses and inconclusive results are not listed.

For `CCC1C(=O)NC(=O)C1(C)c1ccccc1` (stereo unspecified), the T/C runs as follows: under setting [1], 115 % of control; under setting [2], 120 % of control; under setting [3], 103 % of control; under setting [4], 101 % of control; under setting [5], 98 % of control; (dose: 100.0 mg/kg/injection, schedule: Q04DX003 (ip), vehicle: Klucel (hydroxypropylcellulose) (HPC)) 101 % of control. The T/C under setting [6] was 110 % of control; the T/C (dose: 200.0 mg/kg/injection, schedule: Q04DX003 (ip), vehicle: Klucel (hydroxypropylcellulose) (HPC)) was 93 % of control; the T/C under setting [7] was 86 % of control; the T/C (dose: 400.0 mg/kg/injection, schedule: Q04DX003 (ip), vehicle: Klucel (hydroxypropylcellulose) (HPC)) was 104 % of control.

Consider `COc1ccc2nccc(/C=C/CC3CCN(C(C)=O)CC3)c2c1`, for which the T/C is, setting by setting: (dose: 12.5 mg/kg/injection, schedule: Q01DX009 (ip), vehicle: saline) 98 % of control; (dose: 12.5 mg/kg/injection, schedule: Q04DX003 (ip), vehicle: Klucel (hydroxypropylcellulose) (HPC)) 103 % of control; under setting [1], 96 % of control; under setting [2], 107 % of control; under setting [3], 101 % of control; under setting [4], 103 % of control. Further, under setting [8], the T/C was 102 % of control.

For the compound `O=NN(CCCl)C(=O)N[C@H]1CCC[C@@H](O)C1`, the T/C reads like this: (dose: 12.0 mg/kg/injection, schedule: Q01DX001 (ip), vehicle: saline with Tween-80) 176 % of control; (dose: 18.0 mg/kg/injection, schedule: Q01DX001 (ip), vehicle: saline with Tween-80) 306 % of control; (dose: 26.0 mg/kg/injection, schedule: Q01DX001 (ip), vehicle: saline with Tween-80) 468 % of control; (dose: 40.0 mg/kg/injection, schedule: Q01DX001 (ip), vehicle: saline with Tween-80) 468 % of control; (dose: 60.0 mg/kg/injection, schedule: Q01DX001 (ip), vehicle: saline with Tween-80) 382 % of control; (dose: 90.0 mg/kg/injection, schedule: Q01DX001 (ip), vehicle: saline with Tween-80) 86 % of control.

Take `c1ccc2c(c1)oc1ccccc12`: the T/C was 102 % of control under setting [9], 102 % of control under setting [10] and 96 % of control under setting [11].

Regarding `OCC(O)C(O)C(O)C(O)C(SCc1ccccc1)SCc1ccccc1` (stereo unspecified), the T/C is, setting by setting: under setting [12], 98 % of control; under setting [13], 92 % of control; (dose: 400.0 mg/kg/injection, schedule: Q04DX002 (ip), vehicle: Klucel (hydroxypropylcellulose) (HPC)) 92 % of control.

For the compound `NC1CC(c2ccccc2)NC(c2ccccc2)C1` (stereo unspecified), the T/C (dose: 15.0 mg/kg/injection, schedule: Q01DX001 (ip), vehicle: carboxymethylcellulose (CMC)) was 100 % of control.

Turning to `OC1C2C3CCC(CC3)C2C(C2OCCO2)C2C3CCC(C3)C12` (stereo unspecified), the T/C was 96 % of control under setting [14], 96 % of control under setting [15] and 89 % of control under setting [16].

On to `Cc1ccccc1OCC(=O)O`, for which the T/C under setting [14] is 107 % of control; the T/C under setting [3] is 107 % of control; the T/C under setting [15] was 98 % of control; the T/C under setting [5] is 98 % of control; the T/C (dose: 100.0 mg/kg/injection, schedule: Q04DX003 (ip), vehicle: gum acacia) is 98 % of control; the T/C under setting [16] is 98 % of control. The T/C was 98 % of control under setting [6]; 94 % of control (dose: 200.0 mg/kg/injection, schedule: Q04DX003 (ip), vehicle: gum acacia); 93 % of control (dose: 400.0 mg/kg/injection, schedule: Q04DX003 (ip), vehicle: gum acacia).

Take `COc1ccc(N=Nc2cc(C)c(C)cc2O)cc1`: the T/C runs as follows: under setting [17], 96 % of control; under setting [18], 103 % of control; under setting [19], 94 % of control.

As for `N#CC(OC(OC(C#N)c1ccccc1)c1ccccc1)c1ccccc1` (stereo unspecified), the T/C under setting [14] is 93 % of control, the T/C under setting [15] was 93 % of control and the T/C under setting [16] was 90 % of control.

In the case of `c1ccc(-c2nc3nncn3nc2-c2ccccc2)cc1`, the T/C by setting is: under setting [9], 94 % of control; under setting [10], 99 % of control; under setting [11], 98 % of control.

On to `CCOC(=O)c1ccc(NC(C)=O)o1`, for which the T/C was 107 % of control (dose: 10.0 mg/kg/injection, schedule: Q01DX001 (ip), vehicle: carboxymethylcellulose (CMC)); 95 % of control (dose: 20.0 mg/kg/injection, schedule: Q01DX001 (ip), vehicle: carboxymethylcellulose (CMC)); 103 % of control (dose: 40.0 mg/kg/injection, schedule: Q01DX001 (ip), vehicle: carboxymethylcellulose (CMC)); 92 % of control (dose: 80.0 mg/kg/injection, schedule: Q01DX001 (ip), vehicle: carboxymethylcellulose (CMC)).

As to `c1cn[nH]c1`, the T/C is 96 % of control (dose: 50.0 mg/kg/injection, schedule: Q01DX001 (ip), vehicle: carboxymethylcellulose (CMC)); 100 % of control (dose: 100.0 mg/kg/injection, schedule: Q01DX001 (ip), vehicle: carboxymethylcellulose (CMC)); 96 % of control (dose: 200.0 mg/kg/injection, schedule: Q01DX001 (ip), vehicle: carboxymethylcellulose (CMC)).

Consider `O=S(=O)(CBr)/C(Br)=C/c1ccccc1`, for which the T/C is 97 % of control (dose: 50.0 mg/kg/injection, schedule: Q04DX002 (ip), vehicle: Klucel (hydroxypropylcellulose) (HPC)); 94 % of control under setting [12]; 103 % of control under setting [13].

As for `CCOC(=O)CC1(C)NC(=O)NC1=O` (stereo unspecified), the T/C is, setting by setting: under setting [5], 104 % of control; under setting [6], 90 % of control; under setting [7], 98 % of control.

Consider `N#C/C(=C\c1ccccn1)c1ccc(Cl)cc1`, for which the T/C is 95 % of control under setting [20], 92 % of control under setting [21] and 94 % of control under setting [22].

As to `CN(C)CCCn1c2ccccc2c2cnccc21`, the T/C under setting [3] was 100 % of control, the T/C under setting [5] is 89 % of control and the T/C under setting [8] was 97 % of control.

`CC1CCC(Oc2nc3c(c(=O)n(C)c(=O)n3C)n2C)CC1` (stereo unspecified): the T/C reads like this: (dose: 50.0 mg/kg/injection, schedule: Q01DX001 (ip), vehicle: other) 104 % of control and 100 % of control; under setting [20], 101 % of control and 103 % of control; under setting [21], 101 % of control and 92 % of control; under setting [22], 95 % of control.

As to `CCCc1nc2ccccc2c(=O)n1/N=C/c1ccsc1`, the T/C is 101 % of control (dose: 100.0 mg/kg/injection, schedule: Q04DX003 (ip), vehicle: saline sonified); 94 % of control (dose: 200.0 mg/kg/injection, schedule: Q04DX003 (ip), vehicle: saline sonified); 94 % of control (dose: 400.0 mg/kg/injection, schedule: Q04DX003 (ip), vehicle: saline sonified).

In the case of `CC(=O)N(C)Nc1ccccc1`, the T/C reads like this: under setting [15], 116 % of control; (dose: 100.0 mg/kg/injection, schedule: Q04DX003 (ip), vehicle: saline with Tween-80) 91 % of control; under setting [16], 97 % of control; (dose: 200.0 mg/kg/injection, schedule: Q04DX003 (ip), vehicle: saline with Tween-80) 91 % of control; (dose: 400.0 mg/kg/injection, schedule: Q01DX009 (ip), vehicle: saline with Tween-80) 90 % of control; (dose: 400.0 mg/kg/injection, schedule: Q04DX003 (ip), vehicle: saline with Tween-80) 106 % of control.

Regarding `O=C(O)c1c(Br)c(Br)c(Br)c(Br)c1C(=O)Nc1ccc(Cl)cc1C(F)(F)F`, the T/C reads like this: under setting [17], 101 % of control; under setting [18], 112 % of control; under setting [19], 102 % of control.
